The source of these data is US20100273808A1 (Millennium Pharmaceticals, Inc., priority 2008, published 2010).

A short description of the data set: Equilibrium aqueous solubility under pH controlled conditions. Format: physicochemical.

The structures appear in SMILES notation. Where two headings read alike, the source gives them in different places.

With `COc1cc2c(N3CCN(C(=O)Nc4ccc(OC(C)C)cc4)CC3)ncnc2cc1OCCCN1CCCCC1.C[C@H](O)C(=O)O` [Form 1, 4-[6-methoxy-7-(3-piperidin-1-yl-propoxy)quinazolin-4-yl]piperazine-1-carboxylic acid(4-isopropoxyphenyl)-amide (L)-lactate Form 1], the solubility is more than 450 mg/mL (aqueous buffer, thermodynamic from solid, in water, physiologically relevant pH's, read-out: solubility); 496 mg/mL (pH 3.51, aqueous buffer, thermodynamic from solid, equilibrium aqueous, pH 3.51, read-out: Solubility); 465 mg/mL (pH 3.97, aqueous buffer, thermodynamic from solid, equilibrium aqueous, pH 3.97, read-out: Solubility); 511 mg/mL (pH 4.23, aqueous buffer, thermodynamic from solid, equilibrium aqueous, pH 4.23, read-out: Solubility); 458 mg/mL (pH 5.96, aqueous buffer, thermodynamic from solid, equilibrium aqueous, pH 5.96, read-out: Solubility).

As to `COc1cc2c(N3CCN(C(=O)Nc4ccc(OC(C)C)cc4)CC3)ncnc2cc1OCCCN1CCCCC1.C[C@H](O)C(=O)O` [Form 4, 4-[6-methoxy-7-(3-piperidin-1-yl-propoxy)quinazolin-4-yl]piperazine-1-carboxylic acid(4-isopropoxyphenyl)-amide (L)-lactate Form 4], the solubility entry is “greater than 325 mg/mL” (in water, physiologically relevant pH's); 359 mg/mL (pH 3.65, aqueous buffer, thermodynamic from solid, equilibrium aqueous, pH 3.65, read-out: Solubility); 412 mg/mL (pH 5.85, aqueous buffer, thermodynamic from solid, equilibrium aqueous, pH 5.85, read-out: Solubility); 327 mg/mL (pH 6.03, aqueous buffer, thermodynamic from solid, equilibrium aqueous, pH 6.03, read-out: Solubility).

Turning to `COc1cc2c(N3CCN(C(=O)Nc4ccc(OC(C)C)cc4)CC3)ncnc2cc1OCCCN1CCCCC1` [compound of formula (II), 4-[6-methoxy-7-(3-piperidin-1-yl-propoxy)quinazolin-4-yl]piperazine-1-carboxylic acid(4-isopropoxyphenyl)-amide], the solubility (in water, pH 6.95, read-out: solubility) is approximately 1.24 mg/mL.
